In the NIST ThermoML archive (doi:10.1016/j.fluid.2013.11.028):

Legend:
[1] = wn = mass fraction of the nth substance listed; settings: 101 kPa, Liquid; for viscosity: Falling or rolling sphere viscometry; for binary diffusion coefficient: Taylor dispersion method; for mass density: Vibrating tube method
[2] = Liquid; for mass density: 101 kPa, Vibrating tube method; for viscosity: 101.33 kPa, Falling or rolling sphere viscometry
[3] = xn = mol fraction of the nth substance listed; settings: 101 kPa, Liquid, Taylor dispersion method, x1 = 0.2

CN(C)CCCN(C)C [N,N,N',N'-tetramethyl-1,3-propanediamine] + O
[1]
Settings	binary diffusion coefficient [m2/s]	mass density [kg/m3]	viscosity [mPa·s]
303.15 K, w1 = 0	7.01e-10	–	–
303.15 K, w1 = 0.1	4.86e-10	983.3	1.345
303.15 K, w1 = 0.2	3.74e-10	972.5	2.335
303.15 K, w1 = 0.3	3.05e-10	960.1	3.923
303.15 K, w1 = 0.4	2.56e-10	944.6	6.081
303.15 K, w1 = 1	–	774.8	–
308.15 K, w1 = 0	7.99e-10	–	–
308.15 K, w1 = 0.1	5.53e-10	981.4	1.183
308.15 K, w1 = 0.2	4.41e-10	969.8	1.985
308.15 K, w1 = 0.3	3.57e-10	956.7	3.192
308.15 K, w1 = 0.4	2.89e-10	940.6	4.853
308.15 K, w1 = 1	–	770.9	–
313.15 K, w1 = 0	9.04e-10	–	–
313.15 K, w1 = 0.1	6.16e-10	979.3	1.051
313.15 K, w1 = 0.2	4.83e-10	967	1.709
313.15 K, w1 = 0.3	4.09e-10	953.1	2.669
313.15 K, w1 = 0.4	3.45e-10	936.6	3.838
313.15 K, w1 = 1	–	767.4	–
318.15 K, w1 = 0	1.01e-09	–	–
318.15 K, w1 = 0.1	6.82e-10	977	0.941
318.15 K, w1 = 0.2	5.41e-10	964	1.488
318.15 K, w1 = 0.3	4.58e-10	949.5	2.264
318.15 K, w1 = 0.4	3.82e-10	932.5	3.182
318.15 K, w1 = 1	–	765	–
323.15 K, w1 = 0	1.08e-09	–	–
323.15 K, w1 = 0.1	7.48e-10	974.6	0.846
323.15 K, w1 = 0.2	6.07e-10	961	1.311
323.15 K, w1 = 0.3	5.14e-10	945.8	1.945
323.15 K, w1 = 0.4	4.32e-10	928.4	2.681
323.15 K, w1 = 1	–	761.4	–

CNCCCN [N-methyl-1,3-diaminopropane]
[2]
Settings	mass density [kg/m3]
303.15 K	849.1
308.15 K	844.7
313.15 K	840.3
318.15 K	835.9
323.15 K	831.5

O [water]
[2]
Settings	viscosity [mPa·s]
303.15 K	0.789
308.15 K	0.714
313.15 K	0.651
318.15 K	0.598
323.15 K	0.541

NCCNCCN [di(2-aminoethyl)amine] + O
[1]
Settings	binary diffusion coefficient [m2/s]	mass density [kg/m3]	viscosity [mPa·s]
303.15 K, w1 = 0	7.45e-10	–	–
303.15 K, w1 = 0.1	7.01e-10	998.5	1.211
303.15 K, w1 = 0.2	6.64e-10	1002.9	2.011
303.15 K, w1 = 0.3	6.14e-10	1009.8	3.572
303.15 K, w1 = 0.4	5.57e-10	1016.2	7.31
303.15 K, w1 = 1	–	942.1	–
308.15 K, w1 = 0	8.43e-10	–	–
308.15 K, w1 = 0.1	7.93e-10	996.7	1.08
308.15 K, w1 = 0.2	7.61e-10	1000.8	1.751
308.15 K, w1 = 0.3	7.14e-10	1007.2	3.015
308.15 K, w1 = 0.4	6.6e-10	1013	5.915
308.15 K, w1 = 1	–	937.9	–
313.15 K, w1 = 0	9.5e-10	–	–
313.15 K, w1 = 0.1	8.95e-10	994.8	0.97
313.15 K, w1 = 0.2	8.52e-10	998.7	1.54
313.15 K, w1 = 0.3	8.13e-10	1004.5	2.582
313.15 K, w1 = 0.4	7.41e-10	1009.9	4.859
313.15 K, w1 = 1	–	933.8	–
318.15 K, w1 = 0	1.03e-09	–	–
318.15 K, w1 = 0.1	1.01e-09	992.8	0.88
318.15 K, w1 = 0.2	9.38e-10	996.3	1.366
318.15 K, w1 = 0.3	8.82e-10	1001.8	2.234
318.15 K, w1 = 0.4	8.55e-10	1006.7	4.049
318.15 K, w1 = 1	–	929.6	–
323.15 K, w1 = 0	1.19e-09	–	–
323.15 K, w1 = 0.1	1.12e-09	990.6	0.799
323.15 K, w1 = 0.2	1.06e-09	993.9	1.221
323.15 K, w1 = 0.3	1.01e-09	998.9	1.95
323.15 K, w1 = 0.4	9.61e-10	1003.4	3.302
323.15 K, w1 = 1	–	925.5	–

OCCO [1,2-ethanediol] + O
[3]
Settings	binary diffusion coefficient [m2/s]
303.15 K	8.21e-10
308.15 K	9.03e-10
313.15 K	9.98e-10
318.15 K	1.09e-09
323.15 K	1.2e-09
